Laboratory results as given in PubChem BioAssay AID179 (DTP/NCI, 2004).
Values joined by “and” are separate entries in the source; they are usually repeats but may differ in a detail not shown here. Equal values may be shown once. Active and inactive are the calls of the source.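 The calls were made as follows: active = compounds giving half or more protection of infected cells from virus-caused growth loss, again on retest; inactive = the rest.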 *1 amine or outer side, *2 acyl side, *3 side chain or, on linkers, in order; H or OH if unused. Where a SMILES comes first, the peptide text is derived from it. [ ]: non-standard residue; d: D form. The star is where a group is joined. X3 = CC(=O)N(C)SCC(N[*:1])C(=O)[*:2]; Cbz = O=C(OCc1ccccc1)*; Bn = c1ccc(C*)cc1

Tested on: CEM cells HIV-1 protection, formazan growth assay
Assay: NCI AIDS Antiviral Assay
Details: for IC50: measured here: growth of uninfected CEM cells
Procedure, shortened: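 Human CEM cells, uninfected and HIV-1-infected, exposed to five drug concentrations; growth measured by soluble formazan assay and scored as percent protection from infection, with protecting compounds retested.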

| Compound | EC50 | IC50 | outcome |
| --- | --- | --- | --- |
| O=Cc1c(O)ccc2ccc(O)c(-c3c(O)ccc4ccc(O)cc34)c12 | > 363 µM | 20.9 µM |  |
| Cc1[nH]c2ccccc2c1C(=O)CC1(O)C(=O)Nc2ccccc21 (stereo not given) |  |  | inactive |
| CCOC(=O)c1sc2[n+](c1C)C(=O)/C(=C/c1ccc([N+](=O)[O-])cc1)S2 | > 200 µM | 20.4 µM |  |
| O=[N+]([O-])c1cccnc1-n1cnc2ccccc21 | > 200 µM | > 100 µM |  |
| O=C(O)c1ccc(C(=O)c2ccccc2C(=O)O)cc1C(=O)O | 19.1 µM | > 200 µM |  |
| O=C(Nc1ccccc1-c1ccccc1)c1ccccc1 | > 200 µM | 91.2 µM |  |
| C#CCN(CC#C)C(=O)C(=O)c1c[nH]c2ccc(OC)cc12 | > 200 µM | 40.7 µM |  |
| CS(=O)(=O)N1CC(CCl)c2ccc(SSc3ccc4c(c3)N(S(C)(=O)=O)CC4CCl)cc21 (stereo not given) |  |  | inactive |
| CCSc1sc(=Nc2ccc(N=c3sc(C)c(SC)s3)cc2)sc1-c1ccc(C)cc1 |  |  | inactive |
| O=C1NC2c3ccccc3CCC12 (stereo not given) | > 1450 µM | > 1450 µM |  |
| CN(/N=C\c1ccnc2ccccc12)c1ccc([N+](=O)[O-])cc1 |  |  | inactive |
| C(#C[PH+](c1ccccc1)c1ccccc1)c1ccccc1.C(#C[PH+](c1ccccc1)c1ccccc1)c1ccccc1.C(#C[PH+](c1ccccc1)c1ccccc1)c1ccccc1.[C-]#[O+].[C-]#[O+].[C-]#[O+].[W] | > 0.676 µM | > 0.676 µM |  |
| CCOC(=O)C(=Cc1cccnc1C)C(=O)OCC | > 692 µM | 8.32 µM |  |
| CCc1c(-c2coc(CC/C(C)=C/c3ccccc3)n2)oc(OC)c(C)c1=O | > 9.55 µM | 0.251 µM |  |
| O=C(Nc1ccc(N=C(Nc2ccccc2)c2ccccc2)cc1)c1ccc(C(=O)Nc2ccc(N=C(Nc3ccccc3)c3ccccc3)cc2)cc1 | > 200 µM | 18.2 µM |  |
| CCC(CCCC[C@@H]1CC[C@H]2CC(=O)C[C@@H]12)OC (stereo not given in full) | > 200 µM | 151 µM |  |
| C1CCN(C2OC3C(COC3N3CCCCC3)OC2OC2CCO[C@@H]2N2CCCCC2)CC1 (stereo not given in full) | > 38.9 µM | 3.39 µM |  |
| COc1ccc(/C=N/NC(=O)c2cnc3[nH]c(=O)n(C)c(=O)c3c2)cc1 | > 200 µM | > 200 µM |  |
| Cc1ccc2nc(N)[nH]c(=O)c2c1Sc1ccncc1 | > 363 µM | 1.35 µM |  |
| CN(C)CCNc1nc(-c2ccc3ccccc3c2)nc2nc[nH]c12 | > 200 µM | 3.8 µM |  |
| COc1ccc(C2Oc3c(cccc3OC)C=C2[N+](=O)[O-])cc1OC (stereo not given) | > 200 µM | 1.2 µM |  |
| N#Cc1cnc2nc1NCCCCCCC2 | > 204 µM | 132 µM |  |
| Cc1cn(C2CC(COCc3ccccc3)N(CCO[Si](C)(C)C(C)(C)C)O2)c(=O)[nH]c1=O (stereo not given) | > 200 µM | 11.5 µM |  |

| Compound | EC50 | IC50 | outcome |
| --- | --- | --- | --- |
| Cc1ccc(S(=O)OC2C3CC4CC(C3)CC2C4)cc1 (stereo not given) |  |  | inactive |
| CC(=O)Oc1cc(C)c(OC(C)=O)c2c1[C@H]1CC[C@]3(C)[C@@H](OC(C)=O)CC[C@H]3[C@@H]1CC2 | > 200 µM | 16.6 µM |  |
| CC[N+]1(C)CCC(O)(c2ccc(OC)cc2)C(C(=O)c2ccc(OC)cc2)C1 (stereo not given) | > 200 µM | 10.2 µM |  |
| c1ccc(-c2ccnc3c2ccc2c(-c4ccccc4)ccnc23)cc1 | > 21.9 µM | 11.5 µM |  |
| COc1cc2ccc3c(c2cc1OC)CCc1cn[nH]c1-3 | > 9.77 µM | > 9.77 µM |  |
| CCCCCCCCCC1CC(=O)OC2=C1C(=O)CCC2 (stereo not given) | > 46.8 µM | > 46.8 µM |  |
| COc1cc2c3c(c1OC)-c1ccccc1C(C(OC(C)=O)c1ccccc1)C3N(C)CC2 (stereo not given) |  |  | inactive |
| CC(=O)Oc1ccc2cc(Oc3ccccc3)c(=O)oc2c1 | > 200 µM | 85.1 µM |  |
| COc1cc(OC)c2c(=O)c3ccccc3n3c(C(C)O)cc1c23 (stereo not given) | > 200 µM | 4.79 µM |  |
| Nc1ccc(Sc2c3ccccc3nc3ccccc23)cc1 | > 17.4 µM | 9.55 µM |  |
| COc1ccc(CCNC(=S)/N=C\C2=C(O)c3ccccc3C2=O)cc1OC | > 200 µM | > 200 µM |  |
| CC(=O)NC(CCCCNC(=O)OCc1ccccc1)C(=O)O (stereo not given) | > 776 µM | > 776 µM |  |
| CCC(CC)(C(=O)O)C(=O)O | > 200 µM | > 200 µM |  |
| CCOC(=O)c1cc(Br)c(-c2onc(C)c2Br)n1C | > 200 µM | 89.1 µM |  |
| N=c1ccn2c(n1)OC1C(O)C(CO)OC12 (stereo not given) | 37.2 µM and > 2 µM |  |  |
| O=C(C1C(c2ccccc2)N1C(c1ccccc1)c1ccccc1)C1C(c2ccccc2)N1C(c1ccccc1)c1ccccc1 (stereo not given) | > 3.39 µM | > 3.39 µM |  |
| CS(=O)(=O)N(CCC#N)c1ccc(/C=N/NC(=O)CC(=O)Nc2cccc(Cl)c2)cc1 | > 204 µM | > 204 µM |  |
| O=C(Nc1ccc(Cl)cc1)c1ccccc1[Se][Se]c1ccccc1C(=O)Nc1ccc(Cl)cc1 | 2.95 µM | 8.51 µM |  |
| Cc1cc(S(=O)(=O)Nc2nnc3c4c(C)csc4ncn23)c(S)cc1Cl | > 200 µM | 110 µM |  |
| O=C1N=CC2(N=N2)C(=O)N1 | > 200 µM | 15.5 µM |  |
| C/C=C/C(=O)[C@@H](O)C(C)C |  |  | inactive |
| CC(NC(=O)C(N)Cc1ccc(O)cn1)C(=O)O (stereo not given) | > 200 µM | > 200 µM |  |
| O=C(/C=C/c1ccc(Cl)cc1)c1ccccc1 | > 56.2 µM | 11.2 µM |  |

| Compound | EC50 | IC50 | outcome |
| --- | --- | --- | --- |
| CS(=O)CC(=O)c1ccccn1 (stereo not given) | > 200 µM | > 200 µM |  |
| CN1CCCC1CCNc1nc(Nc2ccc(Cl)c(Cl)c2)nc2ccc(Cl)cc12 (stereo not given) | > 19.1 µM | 3.24 µM |  |
| O=C1C[C@@H]2OC3=C(C(=O)CCC3)[C@@H]2O1 | > 1290 µM | 7.24 µM |  |
| O=C1[C@H](c2ccccc2)C2c3ccccc3CCN12 (stereo not given in full) | > 200 µM | 97.7 µM |  |
| CCOC(=O)Cn1c(=O)c2nc(SC)sc2n(CC)c1=S |  |  | inactive |
| CC(=O)N(C)SCC(NC(=O)C(Cc1ccccc1)NC(=O)OCc1ccccc1)C(=O)NC(Cc1ccccc1)C(=O)NC(Cc1c[nH]c2ccccc12)C(=O)NC(CCCCNC(=O)OCc1ccccc1)C(=O)NC(C(=O)NC(CSN(C)C(C)=O)C(=O)NC(C(N)=O)C(C)OCc1ccccc1)C(C)OCc1ccccc1 (stereo not given) (Cbz-F[X3]FWK(Cbz)T(Bn)[X3]T(Bn)-NH2; configuration not given here) | 55 µM | 85.1 µM |  |
| CC(=O)Oc1c2ccsc2cc2ccsc12 | > 75.9 µM | 3.31 µM |  |
| CC1=C(C(=O)NNC(=O)CC#N)CC(C(=O)NNC(=O)CC#N)=C(C)N1 | > 200 µM | 123 µM |  |
| O=[N+]([O-])c1ncc(N(CCO)CCO)s1 | > 200 µM | 85.1 µM |  |
| O=C(Nc1ccc(N=Nc2ccc(O)c(C(=O)O)c2)cc1)Nc1ccc(N=Nc2ccc(O)c(C(=O)O)c2)cc1 | > 200 µM | 141 µM |  |
| NC(CCCCCC(N)C(=O)O)C(=O)O (stereo not given) |  |  | inactive |
| CC(=O)OCC12C(OC(C)=O)C[C@@H](C)C3(CC(c4ccoc4)OC3=O)C1CCC(OC(C)=O)C21CO1 (stereo not given in full) | > 200 µM | > 200 µM |  |
| COC(=O)CNC(=O)C(NC(=O)C1CCCN1C(=O)OCc1ccccc1)C(C)C (stereo not drawn) (Cbz-Pro-Val-Gly-OMe; configuration not given here) | > 224 µM | 37.2 µM |  |
| CCC1([N+](=O)[O-])CN(N=O)C1 | > 200 µM | > 200 µM |  |
| COc1cccc(/C=C\C#N)c1 | > 316 µM | > 316 µM |  |
| Cc1ccc(C)c2c1C/C(=C\c1ccccc1C(=O)O)C2=O | > 200 µM | 83.2 µM |  |
| COc1ccc(-c2c(C3=NCCCN3)nnn2-c2ccc(Cl)cc2)cc1 | 14.1 µM | 85.1 µM |  |
| O=C1/C(=C\c2c(-c3ccccc3)nn(-c3ccccc3)c2O)C(c2ccccc2)=NN1c1ccccc1 | > 100 µM | > 100 µM |  |
| CC(C)(C)NC(=O)C12C3C4C1C1C2C3C41I (stereo not given) | > 100 µM | > 100 µM |  |
| CCOC(=O)c1c(NC(=O)c2ccccc2)c(C#N)c2n1CCCCC2 | > 100 µM | > 100 µM |  |
| CC(=O)Oc1c(OC(C)C)cc(=O)n2ccsc12 | > 200 µM | 102 µM |  |
| Cc1nc(N)c(N2CCN(CN)CC2)c(=O)[nH]1 | > 200 µM | > 200 µM |  |
| Nc1ncnc2c1ncn2CC(=O)NCCO | > 200 µM | > 200 µM |  |

| Compound | EC50 | IC50 | outcome |
| --- | --- | --- | --- |
| CC(=O)C1C(=O)C(=O)N(c2ccc([N+](=O)[O-])cc2Cl)C1=O (stereo not given) | > 200 µM | 95.5 µM |  |
| CCCC(NCCCCCCNC(CCC)C(=O)O)C(=O)O (stereo not given) | > 525 µM | > 525 µM |  |
| Cc1nc2ccccc2c(=O)n1-c1ccccc1 | > 1050 µM | 631 µM |  |
| O=C1C2c3[nH]c4ccccc4c3C3CCCCCCC3C2C(=O)N1c1ccccc1 (stereo not given) |  |  | inactive |
| COc1cc2nncc(SCc3ccc(Cl)cc3)c2cc1OC | > 77.6 µM | > 77.6 µM |  |
| CCOC(=O)c1cnc(NC)n2nc(-c3ccccc3)nc12 |  |  | inactive |
| O=C(OCCSSCCOC(=O)c1ccc([N+](=O)[O-])cc1)c1ccc([N+](=O)[O-])cc1 | > 200 µM | 12 µM |  |
| COc1cccc(OC)c1/C=C1\OC(=O)c2cccc(OC)c21 | > 20 µM | 1.17 µM |  |
| O=c1[nH]nc(-c2ccccc2)n1/N=C/c1c(O)ccc2ccccc12 | > 200 µM | 112 µM |  |
| CN(C)c1ccc(/C=C2\Oc3ccccc3C2=O)cc1 | > 200 µM | > 200 µM |  |
| CC(=O)OCc1ncccc1C(OC(C)=O)OC(C)=O | > 891 µM | > 891 µM |  |
| O=c1[nH]c2ccc(CC(=S)N3CCCCC3)cc2s1 | > 200 µM | 148 µM |  |
| Nc1ccc(N=O)c(N)n1 | > 200 µM | > 200 µM |  |
| O=C1C(O)C(O)C(O)C(O)C1O (stereo not given) | > 200 µM | > 200 µM |  |
| Nc1c(N2CCCCC2)c(=O)nc2[nH]/c(=C\c3ccco3)c(=O)n12 | > 200 µM | 158 µM |  |
| O=C1C2=C(c3ccccc31)C(c1ccccc1)NC(=S)N2 (stereo not given) | > 89.1 µM | 37.2 µM |  |
| Oc1cc(O)c(Oc2cccc(O)c2O)c(O)c1 | > 1000 µM | 38.9 µM |  |
| CN(C)Cc1c(O)ccc2ccccc12 | > 468 µM | 245 µM |  |
| CC(C)(C)C(=O)/C=C/c1cccc(F)c1 |  |  | inactive |
| O=C(Nc1ccccc1C(=O)O)/C(=C/c1ccccc1)NC(=O)c1ccccc1 | > 200 µM | > 200 µM |  |
